Laboratory results taken from the kinase profiling compilation of Christmann-Franck et al. (2016).

Legend:
Experiment in all cases: radiometric filter-binding kinase assay
[1] = biological target: BTK (human) (UniProt Q06187)
[2] = biological target: CDK2 CCNA2 (human) (UniProt P20248+P24941)
[3] = biological target: CHEK1 (human) (UniProt O14757)
[4] = biological target: CSNK2A1 (human) (UniProt P68400)
[5] = biological target: DAPK1 (human) (UniProt P53355)
[6] = biological target: EEF2K (human) (UniProt O00418)
[7] = biological target: EPHA4 (human) (UniProt P54764)
[8] = biological target: EPHB1 (human) (UniProt P54762)
[9] = biological target: EPHB4 (human) (UniProt P54760)
[10] = biological target: GCK (human) (UniProt Q12851)
[11] = biological target: IKBKB (human) (UniProt O14920); settings: compound 0.01 µM
[12] = biological target: INSRR (human) (UniProt P14616)
[13] = biological target: MAP2K1 (human) (UniProt Q02750)
[14] = biological target: MAP2K2 (human) (UniProt P36507)
MAP2K2 (human), sequence (P36507 whole entry, looked up): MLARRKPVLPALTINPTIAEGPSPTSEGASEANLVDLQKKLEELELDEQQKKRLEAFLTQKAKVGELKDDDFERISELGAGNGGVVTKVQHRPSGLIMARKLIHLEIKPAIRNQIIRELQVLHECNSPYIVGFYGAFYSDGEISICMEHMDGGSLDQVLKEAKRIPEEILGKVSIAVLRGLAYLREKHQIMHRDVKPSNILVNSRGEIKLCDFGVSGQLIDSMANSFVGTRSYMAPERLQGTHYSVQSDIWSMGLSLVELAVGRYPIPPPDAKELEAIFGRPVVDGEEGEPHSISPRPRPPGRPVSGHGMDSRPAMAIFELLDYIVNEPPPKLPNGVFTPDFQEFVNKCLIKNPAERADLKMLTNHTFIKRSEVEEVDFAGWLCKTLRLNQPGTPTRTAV

[15] = biological target: MAP3K5 (human) (UniProt Q99683)
[16] = biological target: MAP3K9 (human) (UniProt P80192)
MAP3K9 (human), sequence (P80192 whole entry, looked up): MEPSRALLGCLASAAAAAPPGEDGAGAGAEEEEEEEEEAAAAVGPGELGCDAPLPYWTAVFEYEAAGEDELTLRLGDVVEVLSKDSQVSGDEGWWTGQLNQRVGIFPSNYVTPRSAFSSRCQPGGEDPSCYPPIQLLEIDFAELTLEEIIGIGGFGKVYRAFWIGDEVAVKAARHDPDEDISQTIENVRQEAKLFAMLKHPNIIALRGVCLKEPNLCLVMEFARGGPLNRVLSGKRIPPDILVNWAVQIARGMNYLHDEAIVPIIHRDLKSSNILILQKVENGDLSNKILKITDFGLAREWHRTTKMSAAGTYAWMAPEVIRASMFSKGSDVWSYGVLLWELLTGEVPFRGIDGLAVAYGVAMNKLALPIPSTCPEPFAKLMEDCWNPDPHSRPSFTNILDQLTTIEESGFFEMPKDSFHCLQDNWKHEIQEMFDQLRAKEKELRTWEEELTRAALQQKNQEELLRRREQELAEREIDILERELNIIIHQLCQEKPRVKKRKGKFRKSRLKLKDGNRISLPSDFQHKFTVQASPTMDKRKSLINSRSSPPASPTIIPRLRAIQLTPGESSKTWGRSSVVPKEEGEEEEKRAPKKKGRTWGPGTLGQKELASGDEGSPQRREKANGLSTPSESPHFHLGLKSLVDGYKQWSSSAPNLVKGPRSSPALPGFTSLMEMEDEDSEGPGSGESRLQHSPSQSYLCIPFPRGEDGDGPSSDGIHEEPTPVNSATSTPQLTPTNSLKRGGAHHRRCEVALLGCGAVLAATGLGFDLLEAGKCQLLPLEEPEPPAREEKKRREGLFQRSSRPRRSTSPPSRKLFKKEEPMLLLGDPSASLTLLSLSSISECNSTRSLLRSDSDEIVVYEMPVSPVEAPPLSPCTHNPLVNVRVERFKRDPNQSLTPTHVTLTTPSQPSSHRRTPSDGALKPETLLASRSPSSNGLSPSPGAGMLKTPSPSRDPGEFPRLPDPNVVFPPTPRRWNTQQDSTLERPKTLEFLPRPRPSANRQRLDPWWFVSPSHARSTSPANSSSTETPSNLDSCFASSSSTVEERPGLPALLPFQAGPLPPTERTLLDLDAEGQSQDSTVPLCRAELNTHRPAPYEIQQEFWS

[17] = biological target: MAPK9 (human) (UniProt P45984)
[18] = biological target: MAPKAPK2 (human) (UniProt P49137)
MAPKAPK2 (human), sequence (P49137 whole entry, looked up): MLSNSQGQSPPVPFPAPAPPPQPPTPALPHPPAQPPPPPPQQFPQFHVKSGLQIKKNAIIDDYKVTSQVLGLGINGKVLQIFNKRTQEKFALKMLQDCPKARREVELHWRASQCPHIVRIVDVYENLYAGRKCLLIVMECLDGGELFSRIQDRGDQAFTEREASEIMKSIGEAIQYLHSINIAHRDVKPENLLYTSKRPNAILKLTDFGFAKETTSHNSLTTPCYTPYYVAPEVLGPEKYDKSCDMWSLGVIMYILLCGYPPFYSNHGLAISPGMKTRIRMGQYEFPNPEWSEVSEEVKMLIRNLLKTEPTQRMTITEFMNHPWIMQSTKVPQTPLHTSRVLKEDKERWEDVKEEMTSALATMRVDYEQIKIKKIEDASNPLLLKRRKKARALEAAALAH

[19] = biological target: MARK3 (human) (UniProt P27448)
[20] = biological target: MARK4 (human) (UniProt Q96L34)
[21] = biological target: MKNK2 (human) (UniProt Q9HBH9)
[22] = biological target: MYLK (human) (UniProt Q15746)
[23] = biological target: NEK6 (human) (UniProt Q9HC98)
NEK6 (human), sequence (Q9HC98 whole entry, looked up): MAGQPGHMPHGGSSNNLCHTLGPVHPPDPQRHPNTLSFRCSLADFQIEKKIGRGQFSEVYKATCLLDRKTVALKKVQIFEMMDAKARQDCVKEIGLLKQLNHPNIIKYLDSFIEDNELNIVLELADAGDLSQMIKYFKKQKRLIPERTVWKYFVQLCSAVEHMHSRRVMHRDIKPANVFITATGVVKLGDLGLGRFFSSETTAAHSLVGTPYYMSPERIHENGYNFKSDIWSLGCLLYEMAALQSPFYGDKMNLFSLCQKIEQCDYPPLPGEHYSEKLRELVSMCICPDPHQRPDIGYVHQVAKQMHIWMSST

[24] = system: PAK2 (human), Q13177 [T402E]
PAK2 (human), Q13177 [T402E], sequence (Q13177 whole entry T402E, looked up): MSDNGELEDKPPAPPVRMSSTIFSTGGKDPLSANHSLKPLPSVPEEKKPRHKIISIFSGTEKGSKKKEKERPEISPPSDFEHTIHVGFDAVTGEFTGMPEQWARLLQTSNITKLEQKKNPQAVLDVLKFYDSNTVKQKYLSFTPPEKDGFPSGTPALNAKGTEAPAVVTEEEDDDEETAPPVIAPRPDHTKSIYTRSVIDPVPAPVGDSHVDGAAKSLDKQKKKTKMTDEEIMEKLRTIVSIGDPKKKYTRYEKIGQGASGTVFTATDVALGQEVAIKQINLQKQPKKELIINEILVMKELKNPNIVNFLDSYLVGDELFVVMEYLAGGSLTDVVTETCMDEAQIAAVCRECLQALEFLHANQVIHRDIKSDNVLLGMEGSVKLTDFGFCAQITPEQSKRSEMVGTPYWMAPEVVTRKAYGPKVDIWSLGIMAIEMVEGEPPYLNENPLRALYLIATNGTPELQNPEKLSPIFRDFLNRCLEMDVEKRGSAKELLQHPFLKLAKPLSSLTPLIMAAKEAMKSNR

[25] = biological target: PAK6 (human) (UniProt Q9NQU5)
PAK6 (human), sequence (Q9NQU5 whole entry, looked up): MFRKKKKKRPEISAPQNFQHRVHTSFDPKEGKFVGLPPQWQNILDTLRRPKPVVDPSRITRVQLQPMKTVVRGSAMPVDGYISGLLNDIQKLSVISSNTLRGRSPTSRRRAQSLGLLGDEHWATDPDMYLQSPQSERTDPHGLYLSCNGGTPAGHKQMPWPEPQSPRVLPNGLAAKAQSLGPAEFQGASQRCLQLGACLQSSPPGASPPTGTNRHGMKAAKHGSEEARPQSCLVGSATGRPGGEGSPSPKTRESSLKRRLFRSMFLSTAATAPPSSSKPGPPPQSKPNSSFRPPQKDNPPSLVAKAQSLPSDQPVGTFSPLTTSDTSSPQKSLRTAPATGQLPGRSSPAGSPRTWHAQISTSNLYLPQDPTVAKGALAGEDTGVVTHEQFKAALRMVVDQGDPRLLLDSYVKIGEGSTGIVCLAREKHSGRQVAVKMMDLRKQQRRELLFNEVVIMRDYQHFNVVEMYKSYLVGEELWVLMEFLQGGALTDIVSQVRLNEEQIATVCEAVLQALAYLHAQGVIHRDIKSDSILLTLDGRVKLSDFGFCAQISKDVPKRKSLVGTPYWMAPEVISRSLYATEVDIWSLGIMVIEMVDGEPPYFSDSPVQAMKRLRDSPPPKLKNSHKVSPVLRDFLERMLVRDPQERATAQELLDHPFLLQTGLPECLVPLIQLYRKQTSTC

[26] = biological target: PIM1 (human) (UniProt P11309)
[27] = biological target: PIM2 (human) (UniProt Q9P1W9)
[28] = biological target: PIM3 (human) (UniProt Q86V86)
[29] = biological target: PKN2 (human) (UniProt Q16513)
[30] = biological target: RPS6KA5 KD1 KD2 (human) (UniProt O75582)
[31] = system: RPS6KB1 (human), P23443 [T412E]
[32] = biological target: SRPK1 (human) (UniProt Q96SB4)
SRPK1 (human), sequence (Q96SB4 whole entry, looked up): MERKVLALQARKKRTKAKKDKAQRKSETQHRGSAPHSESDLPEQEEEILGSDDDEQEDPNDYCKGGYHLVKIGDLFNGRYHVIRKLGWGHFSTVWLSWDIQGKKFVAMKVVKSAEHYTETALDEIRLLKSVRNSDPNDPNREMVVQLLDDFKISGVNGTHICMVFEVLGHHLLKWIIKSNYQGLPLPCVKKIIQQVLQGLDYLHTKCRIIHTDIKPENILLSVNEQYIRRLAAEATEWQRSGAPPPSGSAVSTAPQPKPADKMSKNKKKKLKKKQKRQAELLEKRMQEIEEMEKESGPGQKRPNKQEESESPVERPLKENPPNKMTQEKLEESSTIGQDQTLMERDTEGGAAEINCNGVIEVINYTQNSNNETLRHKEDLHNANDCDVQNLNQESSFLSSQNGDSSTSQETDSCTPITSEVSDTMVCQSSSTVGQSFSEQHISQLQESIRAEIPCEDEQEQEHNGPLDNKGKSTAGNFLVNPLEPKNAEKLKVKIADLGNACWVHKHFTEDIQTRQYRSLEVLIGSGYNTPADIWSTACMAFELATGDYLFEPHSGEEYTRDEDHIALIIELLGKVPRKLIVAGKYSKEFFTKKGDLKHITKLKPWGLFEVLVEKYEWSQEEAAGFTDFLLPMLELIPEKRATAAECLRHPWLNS

[33] = biological target: STK3 (human) (UniProt Q13188)
[34] = biological target: TBK1 (human) (UniProt Q9UHD2)
[35] = biological target: TTK (human) (UniProt P33981)
[36] = biological target: YES1 (human) (UniProt P07947)
YES1 (human), sequence (P07947 whole entry, looked up): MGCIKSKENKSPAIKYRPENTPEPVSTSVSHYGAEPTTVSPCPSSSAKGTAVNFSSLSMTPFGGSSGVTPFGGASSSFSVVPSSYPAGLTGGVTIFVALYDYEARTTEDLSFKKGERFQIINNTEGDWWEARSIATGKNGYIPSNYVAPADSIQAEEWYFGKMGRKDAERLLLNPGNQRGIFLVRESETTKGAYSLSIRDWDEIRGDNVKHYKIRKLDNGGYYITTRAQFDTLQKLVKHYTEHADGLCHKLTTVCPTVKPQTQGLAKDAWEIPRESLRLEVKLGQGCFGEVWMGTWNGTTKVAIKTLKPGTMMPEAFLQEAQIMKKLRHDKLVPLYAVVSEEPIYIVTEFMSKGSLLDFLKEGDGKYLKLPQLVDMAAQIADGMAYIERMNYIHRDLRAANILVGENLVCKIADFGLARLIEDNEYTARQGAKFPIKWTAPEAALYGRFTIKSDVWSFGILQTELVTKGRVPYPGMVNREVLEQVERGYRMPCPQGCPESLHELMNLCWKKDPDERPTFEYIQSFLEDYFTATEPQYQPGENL

CSNK2A1 (human), sequence (P68400 whole entry, looked up): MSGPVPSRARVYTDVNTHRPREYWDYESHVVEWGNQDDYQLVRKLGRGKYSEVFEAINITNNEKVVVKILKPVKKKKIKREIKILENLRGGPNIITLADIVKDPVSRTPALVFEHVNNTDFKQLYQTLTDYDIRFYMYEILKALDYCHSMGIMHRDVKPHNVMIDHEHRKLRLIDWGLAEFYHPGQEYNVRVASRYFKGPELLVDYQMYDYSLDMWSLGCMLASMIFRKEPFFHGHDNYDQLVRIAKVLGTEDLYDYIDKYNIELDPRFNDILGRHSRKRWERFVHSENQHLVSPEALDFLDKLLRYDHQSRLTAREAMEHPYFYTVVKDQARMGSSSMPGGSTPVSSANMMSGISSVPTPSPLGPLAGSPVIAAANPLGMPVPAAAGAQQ

## O=C(Nc1nc2cc(C(F)(F)F)cc(NC3CC3)n2n1)c1cccnc1
[1]; compound 0.01 µM
  residual activity: 108%
[1]; compound 0.1 µM
  residual activity: 103%
[1]; compound 1.0 µM
  residual activity: 101%
[2]; compound 0.01 µM
  residual activity: 95%
[2]; compound 0.1 µM
  residual activity: 98%
[2]; compound 1.0 µM
  residual activity: 85%
[3]; compound 0.01 µM
  residual activity: 103%
[3]; compound 0.1 µM
  residual activity: 99%
[3]; compound 1.0 µM
  residual activity: 104%
[4]; compound 0.01 µM
  residual activity: 99%
[4]; compound 0.1 µM
  residual activity: 127%
[4]; compound 1.0 µM
  residual activity: 102%
[5]; compound 0.01 µM
  residual activity: 112%
[5]; compound 0.1 µM
  residual activity: 95%
[5]; compound 1.0 µM
  residual activity: 95%
[6]; compound 0.01 µM
  residual activity: 99%
[6]; compound 0.1 µM
  residual activity: 118%
[6]; compound 1.0 µM
  residual activity: 84%
[7]; compound 0.01 µM
  residual activity: 101%
[7]; compound 0.1 µM
  residual activity: 124%
[7]; compound 1.0 µM
  residual activity: 93%
[8]; compound 0.01 µM
  residual activity: 106%
[8]; compound 0.1 µM
  residual activity: 120%
[8]; compound 1.0 µM
  residual activity: 94%
[9]; compound 0.01 µM
  residual activity: 106%
[9]; compound 0.1 µM
  residual activity: 104%
[9]; compound 1.0 µM
  residual activity: 96%
[10]; compound 0.01 µM
  residual activity: 112%
[10]; compound 0.1 µM
  residual activity: 103%
[10]; compound 1.0 µM
  residual activity: 108%
[11]
  residual activity: 79%
[12]; compound 0.01 µM
  residual activity: 91%
[12]; compound 0.1 µM
  residual activity: 104%
[12]; compound 1.0 µM
  residual activity: 94%
[13]; compound 0.01 µM
  residual activity: 72%
[13]; compound 0.1 µM
  residual activity: 76%
[13]; compound 1.0 µM
  residual activity: 61%
[14]; compound 0.01 µM
  residual activity: 90%
[14]; compound 0.1 µM
  residual activity: 90%
[14]; compound 1.0 µM
  residual activity: 69%
[15]; compound 0.01 µM
  residual activity: 98%
[15]; compound 0.1 µM
  residual activity: 54%
[15]; compound 1.0 µM
  residual activity: 11%
[16]; compound 0.01 µM
  residual activity: 90%
[16]; compound 0.1 µM
  residual activity: 80%
[16]; compound 1.0 µM
  residual activity: 75%
[17]; compound 0.01 µM
  residual activity: 89%
[17]; compound 0.1 µM
  residual activity: 84%
[17]; compound 1.0 µM
  residual activity: 90%
[18]; compound 0.01 µM
  residual activity: 99%
[18]; compound 0.1 µM
  residual activity: 102%
[18]; compound 1.0 µM
  residual activity: 99%
[19]; compound 0.01 µM
  residual activity: 83%
[19]; compound 0.1 µM
  residual activity: 87%
[19]; compound 1.0 µM
  residual activity: 86%
[20]; compound 0.01 µM
  residual activity: 127%
[20]; compound 0.1 µM
  residual activity: 111%
[20]; compound 1.0 µM
  residual activity: 119%
[21]; compound 0.01 µM
  residual activity: 95%
[21]; compound 1.0 µM
  residual activity: 91%
[22]; compound 0.01 µM
  residual activity: 96%
[22]; compound 0.1 µM
  residual activity: 93%
[22]; compound 1.0 µM
  residual activity: 106%
[23]; compound 0.01 µM
  residual activity: 114%
[23]; compound 0.1 µM
  residual activity: 113%
[23]; compound 1.0 µM
  residual activity: 101%
[24]; compound 0.01 µM
  residual activity: 110%
[24]; compound 0.1 µM
  residual activity: 126%
[24]; compound 1.0 µM
  residual activity: 104%
[25]; compound 0.01 µM
  residual activity: 100%
[25]; compound 0.1 µM
  residual activity: 88%
[25]; compound 1.0 µM
  residual activity: 93%
[26]; compound 0.01 µM
  residual activity: 104%
[26]; compound 0.1 µM
  residual activity: 96%
[26]; compound 1.0 µM
  residual activity: 98%
[27]; compound 0.01 µM
  residual activity: 106%
[27]; compound 0.1 µM
  residual activity: 109%
[27]; compound 1.0 µM
  residual activity: 108%
[28]; compound 0.01 µM
  residual activity: 104%
[28]; compound 0.1 µM
  residual activity: 101%
[28]; compound 1.0 µM
  residual activity: 95%
[29]; compound 0.01 µM
  residual activity: 77%
[29]; compound 0.1 µM
  residual activity: 104%
[29]; compound 1.0 µM
  residual activity: 75%
[30]; compound 0.01 µM
  residual activity: 114%
[30]; compound 0.1 µM
  residual activity: 114%
[30]; compound 1.0 µM
  residual activity: 95%
[31]; compound 0.01 µM
  residual activity: 125%
[31]; compound 0.1 µM
  residual activity: 104%
[31]; compound 1.0 µM
  residual activity: 103%
[32]; compound 0.01 µM
  residual activity: 100%
[32]; compound 0.1 µM
  residual activity: 90%
[32]; compound 1.0 µM
  residual activity: 102%
[33]; compound 0.01 µM
  residual activity: 99%
[33]; compound 0.1 µM
  residual activity: 116%
[33]; compound 1.0 µM
  residual activity: 93%
[34]; compound 0.01 µM
  residual activity: 99%
[34]; compound 0.1 µM
  residual activity: 101%
[34]; compound 1.0 µM
  residual activity: 102%
[35]; compound 0.01 µM
  residual activity: 93%
[35]; compound 0.1 µM
  residual activity: 99%
[35]; compound 1.0 µM
  residual activity: 96%
[36]; compound 0.01 µM
  residual activity: 81%
[36]; compound 0.1 µM
  residual activity: 87%
[36]; compound 1.0 µM
  residual activity: 74%
